Test system: CD37-expressing Daudi cancer B-cell line
Experiment: Antibody Dependent Cellular Cytotoxicity (ADCC) assay, 51Cr release, PBL effector cells
Assay type: cell-based, human
Details: TRU-016 treated with CS over a range of 100 μM-800 μM final concentration
Protocol: TRU-016 produced as described in Example 8 is incubated with the CD37-expressing Daudi cancer B-cell line in conjunction with primary human peripheral blood lymphocytes (PBL's) effector cells to assess ADCC activity.
Daudi target cells (5×10̂6) are added to a 15 ml conical tube and then centrifuged at 250×g for 5 minutes at 20° C. and the supernatant removed. The cell pellet is resuspended by the addition of 0.3 mCi Chromium-51 (^51Cr, GE Healthcare, CJ51). The cells are incubated for 75 minutes at 37° C. with 5% CO2, allowing the cells to incorporate the radioactive isotope. The cells are then washed three times to remove any unincorporated ^51Cr. This is done by adding 10 mL of complete media—IMDM (Gibco) with 10% FBS (Gibco)—to the tube, centrifuging at 250×g for 5 minutes at 20° C. followed by removal of supernatant. The final resuspension is in 11.5 mL of complete media. TRU-016 is diluted in complete media, at concentrations that are able to generate maximal to background levels of cell lysis (500 ng/mL-0.005 ng/mL). These titrations are plated out, 50 μL/well, in a round bottom 96 well plate. The ^51Cr labeled target cells are added to the dose titrations of TRU-016 at 50 μL/well and the control wells (control media without TRU-016). PBL's are isolated from fresh heparinized whole blood by density gradient centrifugation using Lymphocyte Separation Media as per protocol (LSM, MP Biomedical, 50494/36427). […] The assay is incubated for 4.5-5 hours at 37° C., 5% CO2. The effector cells lyse the target cells relative to the TRU-016 concentration, releasing a proportional amount of ^51Cr into the assay supernatant. Following the incubation the plate is centrifuged at 250×g for 3 minutes at 20° C. A 25 μL volume of cell-free supernatant is removed from all wells to a scintillation plate (Perkin Elmer 6005185) and dried overnight. The amount of ^51Cr isotope in each well of the scintillation plate is measured using a Topcount plate reader (Perkin Elmer, C9904V0). The data are expressed as percent of specific release. Specific release is calculated as:
(Sample value−Spontaneous value)/(Maximum value−Spontaneous value)*100% • Spontaneous=amount of ^51Cr released from target cell only • Maximum release=amount of ^51Cr released from targets treated with detergent lysing agent • Background Control=amount of ^51Cr released from target cells+effector cells (No TRU-016)
A dose response is generated and fit to a 4-parameter logistic curve using SoftMax Pro software (Molecular Devices, ver 5.0.1). Titrations of TRU-016 are utilized to create dose response curves of test and reference material for comparison. The EC50 values for the treated articles are compared to the untreated control (no CS) to determine the percent increase in ADCC activity.

TRU-016: recombinant single chain protein (SMIP) that binds CD37; G28-1 binding domain, modified hinge, human IgG1 CH2 and CH3; SEQ ID NO: 2
ADCC activity relative to untreated TRU-016: significantly increased
